Test results published in patent US9586986B2, “Substituted 7-deazapurine ribonucleosides for therapeutic uses” (Institute of Organic Chemistry and Biochemistry ASCR, v.v.i., priority 2014, dated 2017).

Experiments:
Format in all cases: cell-based
CCRF-CEM = assay: Cytostatic/cytotoxic MTT assay, CCRF-CEM; conditions: Homo sapiens, 72 h, read-out: MTT, IC50 CCRF-CEM
How it was run: (§1)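 Cells were plated at 25,000-30,000/well, given 24 h pre-incubation, then treated with four-fold compound dilutions in duplicate for 72 h at 37° C., 5% CO2. MTT was added for 1-4 h and formazan was dissolved overnight in 10% SDS (pH 5.5) before reading OD at 540 nm. IC50 is the concentration giving 50% growth inhibition.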

HCT116p53-/- = assay: Cytostatic/cytotoxic MTT assay, HCT116p53-/-; conditions: Homo sapiens, HCT-116, 72 h, read-out: MTT, IC50 HCT116 p53-/-
How it was run: (§2)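 Human cancer lines, including daunorubicin-resistant CEM-DNR (mrp-1/mdr-1 overexpressing) and paclitaxel-resistant K562-TAX (mdr-1), seeded 25,000-30,000 cells/well, pre-incubated 24 h, then treated in duplicate with four-fold dilutions for 72 h at 37° C, 5% CO2. MTT read-out at 540 nm; IC50 from dose-response curves.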

[1] = test system: Huh-7 cells harboring replicon 1B; assay: Cytotoxicity in replicon 1B cells; conditions: HCV subtype 1B replicon
Method: (§3) Compounds were also tested in Huh-7 cells harboring sub-genomic reporter replicons derived from HCV subtypes 1B and 2A (ref.: Stuyver, L. J.; Whitaker, T.; McBrayer, T. R.; Hernandez-Santiago, B. I.; Lostia, S.; Tharnish, P. M.; Ramesh, M.; Chu, C. K.; Jordan, R.; Shi, J. X.; Rachakonda, S.; Watanabe, K. A.; Otto, M. J.; Schinazi, R. F. Antimicrob. Agents Chemother. 2003, 47, 244-254).

K562-TAX = assay: Cytostatic/cytotoxic MTT assay, K562-TAX; conditions: Homo sapiens, 72 h, read-out: MTT, IC50 K562-TAX
How it was run: as §2

MRC-5 = assay: Cytostatic/cytotoxic MTT assay, MRC-5 fibroblasts; conditions: Homo sapiens, MRC5, 72 h, read-out: MTT, IC50 MRC-5
How it was run: as §1

HepG2 = assay: XTT cytotoxicity assay, HepG2; conditions: Homo sapiens, HepG2, 72 h, read-out: XTT, IC50 HepG2
How it was run: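 HepG2 cells seeded at 10,000/well, compounds added after 24 h and incubated 72 h at 37 °C, 5% CO2. Viability by XTT reduction (1 mg/mL XTT plus electron coupler), absorbance at 495 nm after 2 h; IC50 by non-linear regression.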

CEM-DNR-bulk = assay: Cytostatic/cytotoxic MTT assay, CEM-DNR-bulk; conditions: Homo sapiens, 72 h, read-out: MTT, IC50 CEM-DNR-bulk
How it was run: as §2

[2] = test system: HCV subtype 2A replicon in Huh-7 cells; assay: HCV sub-genomic reporter replicon assay, subtype 2A; conditions: Hepatitis C virus, Huh-7, read-out: Replicon 2A EC50
Method: as §3

HCT116 = assay: Cytostatic/cytotoxic MTT assay, HCT116; conditions: Homo sapiens, HCT-116, 72 h, read-out: MTT, IC50 HCT116
How it was run: as §2

`Cc1ncnc2c1ccn2[C@@H]1O[C@H](CO)[C@@H](O)[C@H]1O` [RC5, 4-Methyl-7-(β-D-ribofuranosyl)-7H-pyrrolo[2,3-d]pyrimidine, reference compound] showed an IC50 (CCRF-CEM) of 10 nM, an IC50 (HCT116p53-/-) of 60 nM and a CC50 [1] of 230 nM. For the same molecule, the IC50 (K562-TAX) was 50 nM, the IC50 (MRC-5) was 90 nM and the IC50 (HepG2) was 60 nM. For the same molecule, the IC50 (CEM-DNR-bulk) was 50 nM, the EC50 [2] was 20 nM and the IC50 (HCT116) was 30 nM.
